The record followed here is patent EP1397353B1, “2-(2,6-DISUBSTITUTED PHENYL)-4-ARYL-5-ALKYL-1,3-OXAZOLINE COMPOUNDS USEFUL AS INSECTICIDES AND ACARICIDES” (Dow AgroSciences LLC, priority 2001, dated 2003).

Where only a bound is given, the exact number is not on record here.

Common to all, as to type: in vivo
In assay [1] the test system is tobacco budworm (Heliothis virescens). Put plainly: Insecticidal test for tobacco budworm (leaf-dip, cotton cotyledon discs). Particulars: dipped cotton cotyledon discs, 2nd instar larvae, 5 days, rating of % Control; for pest or weed control at 400 ppm: Heliothis virescens, 120 h, read-out: TBW, activity at 400 ppm against tobacco budworm. The protocol:
(§1) Insecticidal test for tobacco budworm (Heliothis virescens), beet armyworm (Spodoptera exigua), and cabbage looper (Trichoplusia ni).
(§2) To prepare test solution, the test compound was formulated at 400 ppm in 7.5 mL of 2 acetone: 1 tap water. 250 µL of the test solution was pipetted upon the surface of 8 mL of lepidopteran diet (modified Shorey) contained in each of five one-ounce plastic cups (one cup = 1 replication). […] After airdrying, the treated leaf discs were placed individually into one-ounce plastic cups. Each dried, treated cotton cotyledon disc was infested with a 2nd instar tobacco budworm larva, and each cabbage leaf disc was infested with a 2nd instar cabbage looper larva. Cups containing the treated substrates and larvae were capped and then held in a growth chamber at 25 °C, 50-55% RH, and 14 hr light: 10 hr dark for 5 days.

The test system of assay [2] is cabbage looper (Trichoplusia ni). Put plainly: Insecticidal test for cabbage looper (leaf-dip, cabbage leaf discs). Particulars: dipped cabbage leaf discs, 2nd instar larvae, 5 days, rating of % Control; for pest or weed control at 400 ppm: Trichoplusia ni, foliar, 120 h, read-out: CL, activity at 400 ppm against cabbage looper. The procedure: as §1, §2
The subject of assay [3] is beet armyworm (Spodoptera exigua). Briefly: Insecticidal test for beet armyworm (treated lepidopteran diet). To be noted: 2nd instar larvae, 5 days, rating of % Control; for pest or weed control at 400 ppm: Spodoptera exigua, 120 h, read-out: BAW, activity at 400 ppm against beet armyworm. The procedure:
as §1, §2

Assay [4] concerns two-spotted spider mite (Tetranychus urticae). Briefly: Insecticidal test for two-spotted spider mite, ovicide method. The procedure: Insecticidal test for two-spotted spider mite (Tetranychus urticae)
Ten adult female two-spotted spider mites were placed on eight 2.2 cm leaf discs of cotton leaf, allowed to oviposit over 24 hours, and thereafter removed. […] Discs were placed on an agar substrate and held at 24 °C and 90% RH for 6 days.

For `CCOc1ccc(-c2ccc([C@H]3N=C(c4c(F)cccc4F)O[C@H]3C)cc2)cc1` (racemic) [Compound 12, (4R,5S)- and (4S,5R)-2-(2,6-difluorophenyl)-4-(4'-ethoxy-1,1'-bphenyl-4-yl)-5-methyl-4,5-dihydro-1,3-oxazole], the “TBW, activity at 400 ppm against tobacco budworm” value (“TBW, activity at 400 ppm” for short) in assay [1] is recorded as “B (80-89)”. For the same molecule, the “CL, activity at 400 ppm against cabbage looper” value (“CL, activity at 400 ppm” for short) in assay [2] was “A (90-100)”. Moreover, the “BAW, activity at 400 ppm against beet armyworm” value (from here on “BAW, activity at 400 ppm”) in assay [3] is “A (90-100)”.
Take `C[C@@H]1OC(c2c(F)cccc2F)=N[C@@H]1c1ccc(-c2ccccc2F)cc1` (racemic) [Compound 15, (4R,5S)- and (4S,5R)-2-(2,6-difluorophenyl)-4-2'-fluoro-1,1'-biphenyl-4-yl)-5-methyl-4,5-dihydro-1,3-oxazole]: in assay [2], the “CL, activity at 400 ppm” value is “A (90-100)”.
With `C[C@@H]1OC(c2c(F)cccc2F)=N[C@H]1c1ccc(-c2ccccc2F)cc1` (mixture of isomers) [Compound 31, (4S,5S)- and (4R,5R)-2-(2,6-difluorophenyl)-4-(2'-fluoro-1,1'-biphenyl-4-yl)-5-methyl-4,5-dihydro-1,3-oxazole], the pest or weed control at 400 ppm in assay [1] is below 50%; in assay [2], 90 to 100%; in assay [3], below 50%. Also, in assay [4] (Tetranychus urticae, foliar, 144 h, ovicide method, cotton leaf discs, 6 days, rating of % Control, read-out: SM, activity against two-spotted spider mite), the pest or weed control was 90 to 100%.
Take “(4R,5R)- and (4S,5S)-4-phenyl-2-(2,6-difluorophenyl)-5-methyl-4,5-dihydro-1,3-oxazole [Compound 35]”: the “TBW, activity at 400 ppm” value in assay [1] is recorded as “F (less than 50)”. In addition, the “CL, activity at 400 ppm” value in assay [2] is reported as “F (less than 50)”.
For `C[C@H]1OC(c2c(F)cccc2F)=N[C@H]1c1ccc(-c2cccc(C(F)(F)F)c2)cc1` (mixture of isomers) [Compound 11, (4S,5R)- and (4R,5S)-2-(2,6-difluorophenyl)-5-methyl-4-[3'-(trifluoromethyl)-1,1'-biphenyl-4-yl]-4,5-dihydro-1,3-oxazole], the pest or weed control at 400 ppm lay within 80 to 89% in assay [1], 90 to 100% in assay [2] and 90 to 100% in assay [3].
With `Cc1cc(Br)ccc1[C@@H]1N=C(c2c(F)cccc2F)O[C@H]1C` (mixture of isomers) [Compound 42, (4S,5S)- and (4R,5R)-4-(4-bromo-2-methylphenyl)-2-(2,6-difluorophenyl)-5-methyl-4,5dihydro-1,3-oxazole], the pest or weed control at 400 ppm in assay [1] was below 50%.
`C[C@@H]1OC(c2c(F)cccc2F)=N[C@@H]1c1ccc(-c2ccc(C(F)(F)F)cc2F)cc1` (mixture of isomers) [Compound 16, (4R,5S)- and (4S,5R)-2-(2,6-difluorophenyl)-4-[2'-fluoro-4'-(trifluoromethyl)-1,1'-biphenyl-4-yl]-5-methyl-4,5-dihydro-1,3-oxazole]: the pest or weed control at 400 ppm in assay [1], in assay [2] and in assay [3] was 90 to 100% throughout.
For the molecule `Cc1ccc(-c2ccc([C@@H]3N=C(c4c(F)cccc4F)O[C@H]3C)cc2)cc1` (mixture of isomers) [Compound 36, (4S,5S)- and (4R,5R)-2-(2,6-difluorophenyl)-5-methyl-4-(4'-methyl-1,1'-biphenyl-4-yl)-4,5-dihydro-1,3-oxazole], the values for the pest or weed control at 400 ppm in assay [1], in assay [2] and in assay [3] were below 50%, 90 to 100% and below 50%, respectively.
For the molecule `C[C@@H]1OC(c2c(F)cccc2F)=N[C@@H]1c1ccc(-c2ccc3c(c2)OC(F)(F)O3)cc1` (mixture of isomers) [Compound 13, (4R,5S)- and (4S,5R)-4-[4-(2,2-difluoro-1,3-benzodioxol-5-yl)phenyl]-2-(2,6-difluorophenyl)-5-methyl-4,5-dihydro-1,3-oxazole], the pest or weed control at 400 ppm in assay [1] was below 50%; in assay [2] it was 90 to 100%.
Turning to `Cc1ccc(-c2ccc([C@@H]3N=C(c4c(F)cccc4F)O[C@H]3C)cc2)cc1C` (mixture of isomers) [Compound 29, (4S,5S)- and (4R,5R)-2-(2,6-difluorophenyl)-4-(3',4'-dimethyl-1,1'-biphenyl-4-yl)-5-methyl-4,5-dihydro-1,3-oxazole], the pest or weed control at 400 ppm in assay [1] is below 50%; in assay [2], 90 to 100%; in assay [3] it was 60 to 69%.
As to `C[C@H]1OC(c2c(F)cccc2F)=N[C@H]1c1ccc(-c2ccc(Cl)cc2)cc1` (mixture of isomers) [Compound 10, (4S,5R)- and (4R,5S)-4-(4'-chloro-1,1'-biphenyl-4-yl)-2-(2,6-difluorophenyl)-5-methyl-4,5-dihydro-1,3-oxazole], the pest or weed control at 400 ppm in assay [1], in assay [2] and in assay [3] was 90 to 100% each time.
`C[C@@H]1OC(c2c(F)cccc2F)=N[C@@H]1c1ccc(-c2ccc(C(F)(F)F)cc2)cc1` (racemic) [Compound 5, (4R,5S)- and 4S,5R)-2-(2,6-difluorophenyl)-5-methyl-4-(4'-(trifluoromethyl)-1,1'-biphenyl-4-yl]-4,5-dihvdro-1,3-oxazole]: in assay [4] (foliar, 144 h), the “SM, activity at 2.5 ppm against two-spotted spider mite” value (“SM, activity at 2.5 ppm” for short) is “A (90-100)”. For the same molecule, in assay [2], the “CL, activity at 400 ppm” value was “A (90-100)”. Moreover, the “BAW, activity at 400 ppm” value in assay [3] was “A (90-100)”.
For the molecule `Cc1ccc(-c2ccc([C@@H]3N=C(c4c(F)cccc4F)O[C@@H]3C)cc2)cc1` (mixture of isomers) [Compound 9, (4S,5R)- and (4R,5S)-2-(2,6-difluorophenyl)-5-methyl-4-(4'-methyl-1,1'-biphenyl-4-yl)-4,5-dihydro-1,3-oxazole], the values for the pest or weed control at 400 ppm in assay [1], in assay [2] and in assay [3] were below 50%, 90 to 100% and 90 to 100%, respectively.
`C[C@@H]1OC(c2c(F)cccc2F)=N[C@H]1c1ccc(-c2ccc(OC(F)(F)F)cc2)cc1` [Compound 47]: in assay [4] (foliar, 144 h), the “SM, activity at 2.5 ppm” value is “A (90-100)”. For the same molecule, in assay [2], the “CL, activity at 400 ppm” value is “A (90-100)”. The “BAW, activity at 400 ppm” value in assay [3] is given as “A (90-100)”.
For `C[C@@H]1OC(c2c(F)cccc2F)=N[C@H]1c1ccc(-c2ccc(Cl)cc2)cc1` (mixture of isomers) [Compound 37, (4S,5S)- and (4R,5R)-4-(4'-chloro-1,1'-biphenyl-4-yl)-2-(2,6-difluorophenyl)-5-methyl-4,5-dihydro-1,3-oxazole], the pest or weed control at 400 ppm in assay [1], in assay [2] and in assay [3] was 90 to 100% throughout.
For the molecule “(4R,5R)- and (4S,5S)-4-(4-bromophenyl)-2-(2-chloro-6-fluorophenyl)-5-methyl-4,5-dihydro-1,3-oxazole [Compound 23]”, the “TBW, activity at 400 ppm” value in assay [1] is “B (80-89)”. The “SM, activity at 2.5 ppm” value in assay [4] (ovicide method, cotton leaf discs, 6 days, rating of % Control) is “A (90-100)”. For the same molecule, the “CL, activity at 400 ppm” value in assay [2] is on record as “F (less than 50)”.
As to `C[C@@H]1OC(c2c(F)cccc2F)=N[C@H]1c1ccc(-c2ccc3c(c2)OC(F)(F)O3)cc1` (mixture of isomers) [Compound 34, (4S,5S)- and (4R,5R)-4-[4-(2,2-difluoro-1,3-benzodioxol-5-yl)phenyl]-2-(2,6-difluorophenyl)-5-methyl-4,5-dihydro-1,3-oxazole], the pest or weed control at 400 ppm in assay [1] was below 50%; in assay [2], 90 to 100%.
